The results in this text go back to US20260014184A1, “ADENOSINE DERIVATIVES FOR USE IN THE TREATMENT OF NEURODEGENERATIVE DISORDERS AND CANCER” (UNIVERSITY COLLEGE CARDIFF CONSULTANTS LIMITED, priority 2022, published 2026).

One assay has as its target T1, TcPINK1 (Tribolium castaneum, UniProt D6WMX4).
T1 construct: purchased MRC PPU Reagents and Services (University of Dundee, U.K.)
T1 sequence (D6WMX4 6-570): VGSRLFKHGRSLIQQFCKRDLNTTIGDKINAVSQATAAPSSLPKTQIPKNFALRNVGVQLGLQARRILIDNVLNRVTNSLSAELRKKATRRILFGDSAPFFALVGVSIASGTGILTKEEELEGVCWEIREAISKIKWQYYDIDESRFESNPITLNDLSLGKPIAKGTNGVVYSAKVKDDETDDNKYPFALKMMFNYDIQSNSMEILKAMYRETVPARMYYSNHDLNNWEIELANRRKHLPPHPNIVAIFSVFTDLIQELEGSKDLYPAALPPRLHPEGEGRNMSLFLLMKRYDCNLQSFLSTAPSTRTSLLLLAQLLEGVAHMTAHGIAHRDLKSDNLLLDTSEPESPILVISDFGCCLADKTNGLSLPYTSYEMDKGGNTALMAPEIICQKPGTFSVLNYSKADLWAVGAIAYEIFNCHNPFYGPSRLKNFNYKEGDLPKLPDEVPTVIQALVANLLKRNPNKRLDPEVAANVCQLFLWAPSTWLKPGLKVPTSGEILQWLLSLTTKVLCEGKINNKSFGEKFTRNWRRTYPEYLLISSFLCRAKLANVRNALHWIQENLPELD
Put plainly: PINK1 in vitro kinase assay with parkin or ubiquitin as substrates. It is filed as biochemical. Particulars: increasing concentrations, max 100 μM; human parkin or ubiquitin as substrates. On the procedure:
This assay was carried out by the MRC PPU Reagents and Services (University of Dundee, U.K.). The assay was conducted as follows: TcPINK1 (5-20mU diluted in 50 mM Tris pH 7.5, 0.1 mM EGTA, 1 mg/ml BSA, 0.1% mercaptoethanol) is assayed against GST PARK2 TV3 or Ubiquitin-His in a final volume of […] containing 50 mM Tris pH 7.5, 0.1 mM EDTA, 10 mM DTT, protein substrate (0.3 mg/ml of GST PARK2 TV3 or 1 mg/ml of Ubiquitin-His, 10 mM magnesium acetate and 0.1 mM [33P-γ-ATP](50-1000 cpm/pmole) in the presence of the relevant small molecule (serial dilution with the highest concentration being 100 μM) and incubated for 30 min at room temperature. Assays are stopped by addition of 5 μl of 0.5 M (3%) orthophosphoric acid and then harvested onto P81 Unifilter plates with a wash buffer of 50 mM orthophosphoric acid.
To examine this further, we ran in vitro kinase assays employing recombinant and constitutively active Tribolium castaneum PINK1 (TcPINK1) and either human parkin or ubiquitin as substrates in the presence of increasing concentrations (max 100 μM) of kinetin riboside, benzyladenosine 9c or its triphosphate derivative (FIG. 6). […]

Another assay relates to Ub Ser65 phosphorylation. Put plainly: Immunofluorescence for Ub Ser65 phosphorylation in YFP-parkin transfected HeLa cells. It is filed as cell-based. Particulars: immunofluorescence; for impact on ubiquitin phosphorylation, compound alone: 50 μM, 24 h, no niclosamide or CCCP. On the procedure:
(§1) Cells were seeded on PerkinElmer PhenoPlate 96-well plates, followed by treatment with compounds. Cells were fixed in chilled 4% PFA for 10 min followed by washes in PBS. […] Following PBS washes, cells were blocked using blocking buffer (PBS, 5% BSA, 0.1% Tween20) for 1 h at room temperature. Primary antibodies were diluted in blocking buffer and added to cells to be incubated overnight at 4° C. Cells were subsequently washed with PBS-T and the appropriate secondary antibodies (diluted in blocking buffer) were added for 2 h at room temperature in darkness. 10 μg/ml of Hoechst 33258 stain was added with secondary antibodies when required. Cells were again washed with PBS-T followed by addition of PBS with 0.02% sodium azide. Cells were then stored at 4° C. until ready for imaging. Primary antibodies used for immunofluorescence are as follows: Phospho-Ub Ser 65 (Sigma-Aldrich cat #ABS1513-1), TOM20 (Santa-Cruz cat #sc-17764). Secondary antibodies and stains used in immunofluorescence; Anti-IgG2a Alexa Fluor™ 546 (ThermoFisher cat #A21133) Anti-rabbit Alexa Fluor™ 647 (ThermoFisher cat #A21244), Hoechst 33258 stain (Sigma-Aldrich cat #B2883).
(§2) Confocal microscopy was performed using a Zeiss LSM800 w/Airyscan fluorescent microscope equipped with lasers emitting at 405 nm, 488 nm, 561 nm and 640 nm. All images were captured using a 40x oil immersion objective lens and processed using Zeiss ZEN software. Images were analysed and quantified using Columbus (PerkinElmer) and TIBCO Spotfire software.
(§3) First, HeLa cells transfected with YFP-parkin were either left untreated or treated with 50 μM kinetin riboside, nucleosides 9a and 9c for 24 h.

Assay [1] concerns immortalised MEF expressing PINK1 wild-type (WT). Put plainly: MitoQC mitophagy assay, MEF expressing PINK1 wild-type. It counts as cell-based. Particulars: 5 μM, 24 h. From the text: (§4) With the inhibition of ubiquitin phosphorylation and parkin localisation to the mitochondria by kinetin riboside and the nucleoside analogue 9c, we next asked whether these compounds still induce mitophagy in a PINK1 dependent manner. To explore this, we employed the established MitoQC assay for measuring mitophagy in cells^11,12.

Assay [2] relates to HeLa cells transfected with YFP-parkin. Put plainly: Immunofluorescence for YFP-parkin localisation and TOM20 (mitochondrial fragmentation). The note with it: for parkin localisation to the mitochondria after pre-treatment followed by CCCP, compared to CCCP alone: 50 μM 24 h, then 10 μM CCCP; for impact on mitochondrial fragmentation (TOM20), compound alone / impact on parkin localisation, compound alone: 50 μM, 24 h, no niclosamide or CCCP. It counts as cell-based. On the procedure: as §1, §2, §3

The next assay concerns PINK1 KO MEFs. Put plainly: MitoQC mitophagy assay, PINK1 knock-out MEF. It counts as cell-based. Particulars: 5 μM, 24 h.
Text: as §4

Consider `OC[C@H]1O[C@@H](n2cnc3c(NCc4ccccc4)ncnc32)[C@H](O)[C@@H]1O` [9c, (2R,3R,4S,5R)-2-(6-(benzylamino)-9H-purin-9-yl)-5-(hydroxymethyl)tetrahydrofuran-3,4-diol], for which the “effect on TcPINK1 kinase activity (covalent inhibition)” value at TcPINK1 is listed as “unlikely to be PINK1 covalent inhibitors”. Further, in the assay with Ub Ser65 phosphorylation (50 μM 24 h, then 10 μM CCCP), the “reduction in ubiquitin phosphorylation and parkin localisation compared with kinetin riboside” value is “appears stronger than that induced by kinetin riboside”; the “ubiquitin Ser65 phosphorylation after pre-treatment followed by CCCP, compared to CCCP alone” value is reported as “significant reduction”. The “impact on ubiquitin phosphorylation, compound alone” value in the assay on Ub Ser65 phosphorylation is listed as “did not have any impact”. Besides, in assay [1], the “level and PINK1 dependence of mitophagy (WT versus KO MEFs)” value is “low level of mitophagy in a PINK1-dependent manner”; the “mitophagy in PINK1 WT MEFs” value is given as “induced mitophagy”. For the same compound, in assay [2], the “parkin localisation to the mitochondria after pre-treatment followed by CCCP, compared to CCCP alone” value is listed as “significant reduction”; the “impact on mitochondrial fragmentation (TOM20), compound alone” value is given as “did not have any impact”; the “impact on parkin localisation, compound alone” value is given as “did not have any impact”. In the assay with PINK1 KO MEFs, the “mitophagy in PINK1 KO MEFs” value is reported as “not observed”.

Take `OC[C@H]1O[C@@H](n2cnc3c(NCc4ccco4)ncnc32)[C@H](O)[C@@H]1O` [kinetin riboside, N^6-(2-furanylmethyl) adenosine]: the “effect on TcPINK1 kinase activity (covalent inhibition)” value at TcPINK1 is “unlikely to be PINK1 covalent inhibitors”. Besides, in the assay on Ub Ser65 phosphorylation (50 μM 24 h, then 10 μM CCCP), the “ubiquitin Ser65 phosphorylation after pre-treatment followed by CCCP, compared to CCCP alone” value is on record as “inhibited”. In the assay with Ub Ser65 phosphorylation, the “impact on ubiquitin phosphorylation, compound alone” value is listed as “did not have any impact”. In addition, the “inhibition of ubiquitin phosphorylation by pre-treatment” value in the assay with Ub Ser65 phosphorylation (YFP-parkin HeLa cells, 50 μM 24 h prior to 10 μM niclosamide or CCCP 1 h) is given as “inhibited ubiquitin phosphorylation”. In addition, in assay [1], the “level and PINK1 dependence of mitophagy (WT versus KO MEFs)” value was “low level of mitophagy in a PINK1-dependent manner”; the “mitophagy in PINK1 WT MEFs” value was “induced mitophagy”. In addition, in assay [2], the “parkin localisation to the mitochondria after pre-treatment followed by CCCP, compared to CCCP alone” value is recorded as “inhibition”; the “impact on mitochondrial fragmentation (TOM20), compound alone” value is “did not have any impact”; the “impact on parkin localisation, compound alone” value is listed as “did not have any impact”. Also, the “mitophagy in PINK1 KO MEFs” value with PINK1 KO MEFs is reported as “not observed”.
